Among the test systems are HCT-15; HCT-116; Malme-3M; NCI-H522; OVCAR-4; KM12; NCI-H460; NCI-H23; SNB-75; EKVX; IGROV-1; TK-10; SK-MEL-5; UACC-62; BT-549; ACHN; MCF7; HL-60; NCI/ADR-RES; SW-620.
Assay in all cases: inhibition of tumour cell growth, NCI panel, 48 h

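In this assay, cells in 96-well plates receive the compound at five concentrations for 48 hours. Endpoints are linearly interpolated between the surrounding concentrations. The concentration for 50% growth inhibition is given as GI50.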 Calls of active or inactive are those of the source. Rule as the data show it: active = GI50 up to about 1.1 µM and inactive = higher.

For the compound `COC(=O)[C@@]12C(=O)C=CC(=O)[C@@H]1C1C(=CC2COC(C)=O)O[C@@H]2OC3(CCCCC3)O[C@H]12` (stereo not given in full), the GI50 in the test with HCT-15 is 5.66 µM; in the test with HCT-116, 5.69 µM (inactive); with Malme-3M it was 15.7 µM (inactive); with NCI-H522, 2.21 µM (inactive); in the test on OVCAR-4, 5.24 µM (inactive); in the test on KM12, 13 µM (inactive). Also, the GI50 was 16.9 µM (inactive) with NCI-H460; 17.1 µM (inactive) with NCI-H23; 13 µM (inactive) with SNB-75; 15.4 µM (inactive) with EKVX; 16 µM (inactive) with IGROV-1; 8.38 µM (inactive) in the test on TK-10. Besides, the GI50 in the test with SK-MEL-5 was 18 µM (inactive); in the test on UACC-62, 12.9 µM (inactive); in the test on BT-549 it was 13.2 µM (inactive); in the test on ACHN, 9.04 µM (inactive); in the test with MCF7 it was 14.1 µM (inactive); with HL-60, 2.89 µM (inactive). The GI50 was 12.8 µM (inactive) in the test on NCI/ADR-RES and 3.75 µM (inactive) in the test with SW-620.

Consider `O=C1N/C(=N/N=C/C(O)C(O)C(O)C(O)CO)N/C1=C\c1cccs1` (stereo not given), for which the GI50 in the test on HCT-15 was > 100 µM; in the test on HCT-116, > 100 µM (inactive); in the test on Malme-3M it was > 100 µM (inactive); in the test with NCI-H522, 88.5 µM (inactive); with OVCAR-4, > 100 µM (inactive); in the test with KM12, > 100 µM (inactive). In addition, the GI50 with NCI-H460 is > 100 µM (inactive); in the test with NCI-H23 it was > 100 µM (inactive); in the test with SNB-75, > 100 µM (inactive); in the test on EKVX it was 87.1 µM (inactive); in the test on IGROV-1, > 100 µM (inactive); in the test on TK-10, > 100 µM (inactive). Moreover, the GI50 in the test with SK-MEL-5, in the test with UACC-62, in the test on BT-549, in the test with ACHN, in the test with MCF7 and with HL-60 was > 100 µM (inactive) throughout. Moreover, the GI50 in the test with NCI/ADR-RES and in the test with SW-620 was > 100 µM (inactive) in each case.

As to `Nc1ncnc2nn(C3OC(CO)C(O)C3O)nc12` (stereo not given), the GI50 was 5.62 µM in the test on HCT-15; 7.87 µM (inactive) in the test on HCT-116; 20.5 µM (inactive) with Malme-3M; 6.82 µM (inactive) in the test on NCI-H522; 28 µM (inactive) in the test with OVCAR-4; 10.1 µM (inactive) with KM12. Also, the GI50 in the test on NCI-H460 is 4.09 µM (inactive); in the test on NCI-H23, 20.3 µM (inactive); in the test on SNB-75, 9.77 µM (inactive); in the test on EKVX, 41.3 µM (inactive); in the test on IGROV-1, 4.12 µM (inactive); in the test on TK-10, 3.56 µM (inactive). Moreover, the GI50 is 12.8 µM (inactive) in the test on SK-MEL-5; 25.4 µM (inactive) in the test with UACC-62; 24.2 µM (inactive) in the test with BT-549; 3.67 µM (inactive) in the test with ACHN; 8.28 µM (inactive) in the test with MCF7; 2.43 µM (inactive) in the test on HL-60. For the same compound, the GI50 with NCI/ADR-RES was 9.73 µM (inactive); in the test on SW-620, 6.52 µM (inactive).

Consider `COc1ccc2nc3cc(Cl)ccc3c(NCCNCCCNC(=O)c3cc(-c4ccccc4)nc4ccccc34)c2c1`, for which the GI50 in the test with HCT-15 was > 100 µM; in the test with HCT-116, > 100 µM (inactive); in the test with Malme-3M, 97.5 µM (inactive); in the test with NCI-H522, > 100 µM (inactive); with OVCAR-4, > 100 µM (inactive); in the test with KM12 it was 70.8 µM (inactive). The GI50 in the test on NCI-H460, in the test with NCI-H23, in the test on SNB-75, in the test with EKVX, in the test with IGROV-1 and in the test on TK-10 was > 100 µM (inactive) throughout. Besides, the GI50 is 67 µM (inactive) in the test with SK-MEL-5; > 100 µM (inactive) in the test on UACC-62; > 100 µM (inactive) in the test with BT-549; > 100 µM (inactive) in the test with ACHN; > 100 µM (inactive) with MCF7; 31.3 µM (inactive) in the test with HL-60. For the same compound, the GI50 with NCI/ADR-RES and with SW-620 was > 100 µM (inactive) each time.

As for `CCOC(=O)c1oc2cc3c(c4c2c1-c1ccccc1N4C)C=CC(C)(C)O3`, the GI50 was 50.4 µM in the test with HCT-15; 14.2 µM (inactive) in the test on HCT-116; 12 µM (inactive) in the test on Malme-3M; 8.71 µM (inactive) with NCI-H522; 6.58 µM (inactive) in the test with OVCAR-4; 16.3 µM (inactive) with KM12. For the same compound, the GI50 in the test on NCI-H460 was 20.5 µM (inactive); in the test on NCI-H23, 22.2 µM (inactive); in the test with SNB-75, 12.6 µM (inactive); with EKVX, 15.3 µM (inactive); in the test on IGROV-1, 15.8 µM (inactive); in the test with TK-10, 7.1 µM (inactive). In addition, the GI50 in the test on SK-MEL-5 was 15.8 µM (inactive); in the test with UACC-62, 11.9 µM (inactive); in the test with BT-549, 23.6 µM (inactive); with ACHN it was 8.89 µM (inactive); in the test with MCF7, 2.37 µM (inactive); in the test on HL-60, 24.4 µM (inactive). Besides, the GI50 in the test on NCI/ADR-RES was 6.3 µM (inactive); with SW-620, 59.8 µM (inactive).

As for `N#C/C(=C\c1cc(Br)c(O)c(Br)c1)c1ccccn1`, the GI50 with HCT-15 is 41.2 µM; in the test with HCT-116, > 100 µM (inactive); in the test with Malme-3M it was 23.6 µM (inactive); in the test on NCI-H522, 64.9 µM (inactive); in the test with OVCAR-4, 61 µM (inactive); in the test on KM12 it was 39.1 µM (inactive). In addition, the GI50 was 48.6 µM (inactive) in the test with NCI-H460; 44 µM (inactive) in the test with NCI-H23; > 100 µM (inactive) in the test with SNB-75; 26.7 µM (inactive) with EKVX; > 100 µM (inactive) in the test on IGROV-1; 80.2 µM (inactive) with TK-10. Further, the GI50 in the test on SK-MEL-5 was 41 µM (inactive); in the test with UACC-62, 37.1 µM (inactive); in the test on BT-549 it was 30.2 µM (inactive); with ACHN it was 90.6 µM (inactive); in the test on MCF7 it was 89.3 µM (inactive); in the test with HL-60 it was > 100 µM (inactive). Besides, the GI50 in the test on NCI/ADR-RES is 43 µM (inactive); with SW-620, 63.5 µM (inactive).

On to `N=C(N)SCc1nc(-c2ccc(Cl)cc2)no1`, for which the GI50 in the test on HCT-15 is 11.2 µM; in the test with HCT-116 it was 14.6 µM (inactive); in the test with Malme-3M, 16.9 µM (inactive); with NCI-H522, 10.6 µM (inactive); in the test with OVCAR-4, 14.6 µM (inactive); in the test on KM12, 20.8 µM (inactive). Besides, the GI50 in the test with NCI-H460 was 23.8 µM (inactive); with NCI-H23 it was 34.4 µM (inactive); with SNB-75, 23.1 µM (inactive); with EKVX, 18.5 µM (inactive); in the test with IGROV-1 it was 32.7 µM (inactive); in the test with TK-10, 20.6 µM (inactive). For the same compound, the GI50 was 31.1 µM (inactive) in the test with SK-MEL-5; 9.79 µM (inactive) in the test on UACC-62; 23.2 µM (inactive) in the test on BT-549; 13.3 µM (inactive) in the test on ACHN; 12.9 µM (inactive) in the test with MCF7; 13.8 µM (inactive) in the test on HL-60. Moreover, the values for the GI50 in the test with NCI/ADR-RES and in the test on SW-620 were 27.9 µM (inactive) and 12.2 µM (inactive), respectively.

With `O=C1/C(=C/c2ccc(Cl)cc2)N=C(c2ccccc2)N1c1nc2ccc(Sc3ccccc3)cc2[nH]1`, the GI50 in the test on HCT-15 is 29.2 µM; in the test with HCT-116, 24.2 µM (inactive); in the test on Malme-3M it was 23.4 µM (inactive); in the test on NCI-H522 it was 22.4 µM (inactive); with OVCAR-4 it was 34.7 µM (inactive); in the test with KM12, 20.7 µM (inactive). In addition, the GI50 in the test on NCI-H460 is 22.7 µM (inactive); in the test on NCI-H23, 30.1 µM (inactive); with SNB-75, 15.8 µM (inactive); with EKVX, 36.3 µM (inactive); in the test with IGROV-1, 40.6 µM (inactive); with TK-10 it was 23.8 µM (inactive). For the same compound, the GI50 in the test with SK-MEL-5 was 15.5 µM (inactive); with UACC-62, 14 µM (inactive); in the test with BT-549, 21.7 µM (inactive); in the test on ACHN, 36.4 µM (inactive); with MCF7, 22.6 µM (inactive); with HL-60 it was 15.8 µM (inactive). Besides, the GI50 was 23.6 µM (inactive) in the test with NCI/ADR-RES and 23.7 µM (inactive) in the test on SW-620.

Regarding `NS(=O)(=O)c1ccc(NCc2cnc3ccccc3c2)cc1`, the GI50 was > 100 µM in the test with HCT-15; > 100 µM (inactive) in the test on HCT-116; > 100 µM (inactive) with Malme-3M; 28.1 µM (inactive) with NCI-H522; > 100 µM (inactive) in the test with OVCAR-4; > 100 µM (inactive) in the test on KM12. Moreover, the GI50 with NCI-H460 is > 100 µM (inactive); with NCI-H23, 60 µM (inactive); in the test with SNB-75, > 100 µM (inactive); with EKVX, > 100 µM (inactive); with IGROV-1, 49.4 µM (inactive); in the test with TK-10, > 100 µM (inactive). The GI50 with SK-MEL-5 was > 100 µM (inactive); in the test on UACC-62, > 100 µM (inactive); in the test with BT-549, 62.8 µM (inactive); with ACHN, > 100 µM (inactive); in the test with MCF7, > 100 µM (inactive); in the test on HL-60, 0.412 µM (active). Besides, the GI50 with NCI/ADR-RES is 83.8 µM (inactive); with SW-620, > 100 µM (inactive).

For `C=C(C)C(=O)O[C@H]1CC2=CC(CC(C)=C[C@H]3OC(=O)C(=C)C13)OC2=O` (stereo not given in full), the GI50 in the test with HCT-15 was 10.8 µM; in the test with HCT-116, 10.8 µM (inactive); in the test on Malme-3M, 20.2 µM (inactive); in the test with NCI-H522, 2.53 µM (inactive); in the test with OVCAR-4, 34.8 µM (inactive); in the test on KM12, 20.3 µM (inactive). Besides, the GI50 with NCI-H460 is 31.1 µM (inactive); with NCI-H23, 39.3 µM (inactive); in the test with SNB-75, > 100 µM (inactive); in the test on EKVX it was 20.6 µM (inactive); in the test with IGROV-1, 33 µM (inactive); with TK-10, 8.02 µM (inactive). In addition, the GI50 in the test on SK-MEL-5 was 68.2 µM (inactive); in the test with UACC-62, 17.4 µM (inactive); in the test with BT-549, 16.3 µM (inactive); in the test with ACHN, 13.2 µM (inactive); in the test on MCF7, 13.1 µM (inactive); with HL-60, 3.65 µM (inactive). The GI50 is 38.3 µM (inactive) with NCI/ADR-RES and 11.8 µM (inactive) in the test on SW-620.

For the origin of these results see ChEMBL document CHEMBL1201862, “PubChem BioAssay data set” (2004).
